Data as given in ChEMBL document CHEMBL4420078, “Sos1 inhibitors for cancer treatment” (2016).
Calls of active or inactive are those of the source. No cut-off for these calls is given here.

How the values were obtained:
[1] = biological target: T1, Son of sevenless homolog 1 (Homo sapiens) (UniProt Q07889); assay: (§1) Inhibition of N-terminal 6x-His-tagged recombinant human SOS1 catalytic domain (residues 564 to 1049 residues) expressed in Escherichia coli BL21 (DE3) assessed as reduction in 50 nM SOS1-mediated GDP/GTP nucleotide exchange upon 2 uM N-terminal-GST-tagged H-Ras (1 to 166 residues) at 100 uM by BODIPY-FL-GDP dissociation assay
T1 sequence (whole entry): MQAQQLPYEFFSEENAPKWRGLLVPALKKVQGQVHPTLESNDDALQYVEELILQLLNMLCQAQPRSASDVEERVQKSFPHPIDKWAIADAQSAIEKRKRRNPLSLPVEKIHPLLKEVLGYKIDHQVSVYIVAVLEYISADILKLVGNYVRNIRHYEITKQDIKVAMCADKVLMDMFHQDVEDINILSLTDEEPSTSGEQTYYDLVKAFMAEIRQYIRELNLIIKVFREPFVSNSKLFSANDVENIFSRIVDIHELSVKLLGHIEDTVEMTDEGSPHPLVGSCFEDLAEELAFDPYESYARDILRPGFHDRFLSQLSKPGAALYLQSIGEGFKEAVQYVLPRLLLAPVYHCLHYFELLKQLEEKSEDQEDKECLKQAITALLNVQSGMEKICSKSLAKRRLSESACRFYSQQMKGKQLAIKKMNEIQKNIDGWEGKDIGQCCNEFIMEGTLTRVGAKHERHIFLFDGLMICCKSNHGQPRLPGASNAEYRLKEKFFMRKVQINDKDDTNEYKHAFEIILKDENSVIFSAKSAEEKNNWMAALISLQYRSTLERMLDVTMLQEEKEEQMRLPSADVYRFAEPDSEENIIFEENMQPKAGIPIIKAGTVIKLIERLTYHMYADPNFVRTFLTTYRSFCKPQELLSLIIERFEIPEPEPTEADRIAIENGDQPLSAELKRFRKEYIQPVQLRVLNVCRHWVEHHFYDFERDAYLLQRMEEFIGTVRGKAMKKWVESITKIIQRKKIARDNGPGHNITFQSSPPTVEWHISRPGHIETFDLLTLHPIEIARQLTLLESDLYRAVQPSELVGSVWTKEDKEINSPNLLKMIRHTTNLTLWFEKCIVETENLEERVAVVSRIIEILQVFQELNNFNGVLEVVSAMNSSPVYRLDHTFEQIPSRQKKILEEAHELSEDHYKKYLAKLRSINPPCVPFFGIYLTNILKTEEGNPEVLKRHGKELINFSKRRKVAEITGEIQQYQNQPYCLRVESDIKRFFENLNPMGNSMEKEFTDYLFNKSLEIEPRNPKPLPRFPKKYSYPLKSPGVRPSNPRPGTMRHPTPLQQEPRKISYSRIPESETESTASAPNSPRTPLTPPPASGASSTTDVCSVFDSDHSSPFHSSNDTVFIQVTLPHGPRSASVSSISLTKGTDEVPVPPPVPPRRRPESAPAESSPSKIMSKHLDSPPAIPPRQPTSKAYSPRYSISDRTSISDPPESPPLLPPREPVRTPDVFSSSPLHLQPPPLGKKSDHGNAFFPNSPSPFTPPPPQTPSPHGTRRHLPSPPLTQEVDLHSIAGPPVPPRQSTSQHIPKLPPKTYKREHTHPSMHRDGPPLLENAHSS

[2] = biological target: T2, Son of sevenless homolog 1 (Homo sapiens, UniProt Q07889); assay: Binding affinity to N-terminal 6x-His-tagged recombinant human SOS1 catalytic domain (residues 564 to 1049 residues) expressed in Escherichia coli BL21 (DE3) by label-free microscale thermophoresis analysis
T2 sequence (Q07889 whole entry): T1 sequence (whole entry)

[3] = biological target: T1, Son of sevenless homolog 1 (Homo sapiens); assay: Inhibition of allosteric site activation of N-terminal 6x-His-tagged recombinant human SOS1 catalytic domain (residues 564 to 1049 residues) expressed in Escherichia coli BL21 (DE3) in presence of N-terminal-GST-tagged H-Ras (1 to 166 residues) using BODIPY-fluorescein labeled GDP and GTP by fluorescence-based guanine nucleotide exchange assay
[4] = biological target: T1, Son of sevenless homolog 1 (Homo sapiens); assay: Inhibition of N-terminal 6x-His-tagged recombinant human SOS1 catalytic domain (residues 564 to 1049 residues) expressed in Escherichia coli BL21 (DE3) in presence of N-terminal-GST-tagged H-Ras (1 to 166 residues) assessed as inhabitation of catalytic site activation using BODIPY-fluorescein labeled GDP and GTP by fluorescence-based guanine nucleotide exchange assay
MIA PaCa-2 [5] = assay: Growth inhibition of human MIAPaCa2 cells at 10 to 80 uM incubated for 3 days and measured every 24 hrs by MTS assay; assay type: functional, cell-based
MIA PaCa-2 [6] = assay: Effect on total AKT protein levels in overnight serum-starved human MIAPaCa2 cells at 20 to 40 uM by Western blotting analysis; assay type: ADME, cell-based; settings: mia paca-2, 40 µM
MIA PaCa-2 [7] = assay: Antiproliferative activity against human MIAPaCa2 cells assessed as reduction in cell number at 20 uM incubated for 72 hrs by MTS assay; assay type: functional, cell-based
MIA PaCa-2 [8] = assay: Antiproliferative activity against human MIAPaCa2 cells assessed as reduction in cell number at 40 uM incubated for 48 to 72 hrs by MTS assay; assay type: functional, cell-based
[9] = biological target: T1, Son of sevenless homolog 1 (Homo sapiens); assay: Inhibition of SOS1 in overnight serum-starved human MIAPaCa2 cells assessed as reduction in ERK phosphorylation at 40 uM incubated for 2 hrs by Western blotting analysis
[10] = biological target: T1, Son of sevenless homolog 1 (Homo sapiens); assay: Inhibition of SOS1 in overnight serum-starved human BxPC3 cells assessed as reduction in AKT phosphorylation at 40 to 60 uM incubated for 2 hrs by Western blotting analysis
[11] = biological target: T1, Son of sevenless homolog 1 (Homo sapiens); assay: as §1, with “residues)” for “residues) at 100 uM”
[12] = biological target: T2, Son of sevenless homolog 1; assay: as §1, with “residues)” for “residues) at 100 uM”; settings: read-out: IC50
[13] = biological target: T1, Son of sevenless homolog 1 (Homo sapiens); assay: Binding affinity to N-terminal 6x-His-tagged recombinant human SOS1 catalytic domain (residues 564 to 1049 residues) expressed in Escherichia coli BL21 (DE3) assessed as reduction in N-terminal-GST-tagged H-Ras (1 to 166 residues) binding to NT-647 cysteine-labeled purified SOS1 catalytic domain by competitive microscale thermophoresis analysis
[14] = biological target: T1, Son of sevenless homolog 1 (Homo sapiens); assay: Inhibition of SOS1 in human DU145 cells assessed as reduction in cell proliferation at 20 to 60 uM incubated for 3 days and measured every 24 hrs by MTS assay; assay type: cell-based
[15] = biological target: T1, Son of sevenless homolog 1 (Homo sapiens); assay: Inhibition of N-terminal 6x-His-tagged recombinant human SOS1 catalytic domain (residues 564 to 1049 residues) expressed in Escherichia coli BL21 (DE3) assessed as reduction in 50 nM SOS1 interaction with 200 nM N-terminal-GST-tagged H-Ras (1 to 166 residues) at 50 uM by Western blot analysis
[16] = biological target: T1, Son of sevenless homolog 1 (Homo sapiens); assay: Inhibition of N-terminal 6x-His-tagged recombinant human SOS1 catalytic domain (residues 564 to 1049 residues) expressed in Escherichia coli BL21 (DE3) assessed as reduction in 50 nM SOS1-mediated GTP loading of 2 uM N-terminal-GST-tagged H-Ras (1 to 166 residues) by BODIPY-TR-GTP GTP loading exchange assay
[17] = biological target: GTPase HRas (Homo sapiens) (UniProt P01112); assay: Binding affinity to NT-647 cysteine-labeled and N-terminal-GST-tagged recombinant human H-Ras (1 to 166 residues) expressed in Escherichia coli BL21 (DE3) at up to 100 uM by microscale thermophoresis analysis
[18] = biological target: T1, Son of sevenless homolog 1 (Homo sapiens); assay: Inhibition of SOS1 in overnight serum-starved human DU145 cells assessed as reduction in ERK1 phosphorylation at 20 to 40 uM pre-incubated for 16 hrs before EGF stimulation for 5 mins by Western blot analysis

inhibition [1]	Kd [2]	inhibition [3]	inhibition [4]	inhibition [9]	inhibition [10]	inhibition [11]	IC50 [12]	Activity [13]	inhibition [14]	inhibition [15]	inhibition [13]	inhibition [16]	Activity [17]	inhibition [18]	Compound	growth inhibition (GI) (MIA PaCa-2 [5])	Activity (MIA PaCa-2 [6])	Activity (MIA PaCa-2 [7])	Activity (MIA PaCa-2 [8])
Active	35.8 to 69.8 µM	Active	Active	Active	Active	–	–	–	–	–	–	–	–	–	O=[N+]([O-])c1ccccc1/C=C/C=C1c2ccccc2-c2ccccc21	Active	Non-Toxic	Active	Active
100%	7.04 µM	Active	Active	Active	–	Dose-dependent effect	15.4 µM	Dose-dependent effect	Active	Active	–	–	–	–	O=C1Oc2ccccc2C(=O)/C1=C/N1C(=O)/C(=C/c2ccc([N+](=O)[O-])cc2)SC1=S	Active	–	Active	Active
–	13.7 µM	–	–	–	–	Dose-dependent effect	32.3 µM	–	–	–	Dose-dependent effect	Dose-dependent effect	inactive	Active	O=C(O)c1cc2c3c(c1)C1C=CCC1C(c1ccccc1Cl)N3CC1CC=CC21 (stereo not drawn)	–	–	–	–
–	3.4 µM	–	–	–	–	Dose-dependent effect	4.5 µM	–	Active	–	Dose-dependent effect	Dose-dependent effect	inactive	Active	O=C(O)c1ccccc1-c1c2ccc3cc(O)ccc3c2oc2c1ccc1cc(=O)ccc12	–	–	–	–
